# Source: ChEMBL document CHEMBL2406981, “Novel pyrazoline amidoxime and their 1,2,4-oxadiazole analogues: synthesis and pharmacological screening” (Bioorg Med Chem Lett, 2013)
# How the values were obtained:
# Type in all cases: functional
# [1] = Antioxidant activity against ferric chloride-induced lipid peroxidation using egg lecithin at 50 ug/ml after 1 hr
# [2] = system: Klebsiella pneumoniae; test: Antimicrobial activity against Klebsiella pneumoniae MTCC 3384 at 100 ug/ml after 24 hrs by agar disc diffusion method; settings: MTCC 3384, 24 h, read-out: DIZ
# [3] = Antioxidant activity against ferric chloride-induced lipid peroxidation using egg lecithin at 100 ug/ml after 1 hr
# [4] = Antioxidant activity assessed as reducing power of ferric ion at 10 ug/ml after 20 mins; set-up: scale not given: the % may be the effect or the level left
# [5] = system: Shigella flexneri; test: Antimicrobial activity against Shigella flexneri MTCC 1457
# [6] = system: Aspergillus flavus; test: Antimicrobial activity against Aspergillus flavus MTCC 873
# [7] = system: Staphylococcus aureus; test: Antimicrobial activity against Staphylococcus aureus MTCC 96
# [8] = system: Staphylococcus aureus; test: Antimicrobial activity against Staphylococcus aureus MTCC 96 at 100 ug/ml after 24 hrs by agar disc diffusion method; settings: MTCC 96, 24 h, read-out: DIZ
# [9] = system: Shigella flexneri; test: Antimicrobial activity against Shigella flexneri MTCC 1457 at 50 ug/ml after 24 hrs by agar disc diffusion method; settings: MTCC 1457, 24 h, read-out: DIZ
# [10] = system: Radical scavenging activity; test: Antioxidant activity assessed as DPPH free radical scavenging activity at 50 ug/ml after 20 mins
# [11] = Antioxidant activity assessed as reducing power of ferric ion at 100 ug/ml after 20 mins; set-up: scale not given: the % may be the effect or the level left
# [12] = system: Aspergillus niger; test: Antimicrobial activity against Aspergillus niger MTCC 281 at 100 ug/ml after 24 hrs by agar disc diffusion method; settings: MTCC 281, 24 h, read-out: DIZ
# [13] = Antioxidant activity assessed as reducing power of ferric ion at 50 ug/ml after 20 mins; set-up: scale not given: the % may be the effect or the level left
# [14] = system: Aspergillus flavus; test: Antimicrobial activity against Aspergillus flavus MTCC 873 at 50 ug/ml after 24 hrs by agar disc diffusion method; settings: MTCC 873, 24 h, read-out: DIZ
# [15] = system: Bacillus cereus; test: Antimicrobial activity against Bacillus cereus MTCC 8372
# [16] = system: Shigella flexneri; test: Antimicrobial activity against Shigella flexneri MTCC 1457 at 100 ug/ml after 24 hrs by agar disc diffusion method; settings: MTCC 1457, 24 h, read-out: DIZ
# [17] = system: Escherichia coli; test: Antimicrobial activity against Escherichia coli MTCC 724 at 50 ug/ml after 24 hrs by agar disc diffusion method; settings: MTCC 724, 24 h, read-out: DIZ
# [18] = system: Escherichia coli; test: Antimicrobial activity against Escherichia coli MTCC 724 at 100 ug/ml after 24 hrs by agar disc diffusion method; settings: MTCC 724, 24 h, read-out: DIZ
# [19] = Antiinflammatory activity against heat-induced albumin denaturation at […] preincubated for 15 mins before heat induction by UV-vis spectrophotometer analysis
# [20] = system: Bacillus cereus; test: Antimicrobial activity against Bacillus cereus MTCC 8372 at 100 ug/ml after 24 hrs by agar disc diffusion method; settings: MTCC 8372, 24 h, read-out: DIZ
# [21] = system: Radical scavenging activity; test: Antioxidant activity assessed as DPPH free radical scavenging activity at 100 ug/ml after 20 mins
# [22] = system: Bacillus cereus; test: Antimicrobial activity against Bacillus cereus MTCC 8372 at 50 ug/ml after 24 hrs by agar disc diffusion method; settings: MTCC 8372, 24 h, read-out: DIZ
# [23] = system: Staphylococcus aureus; test: Antimicrobial activity against Staphylococcus aureus MTCC 96 at 50 ug/ml after 24 hrs by agar disc diffusion method; settings: MTCC 96, 24 h, read-out: DIZ
# [24] = system: Escherichia coli; test: Antimicrobial activity against Escherichia coli MTCC 724
# [25] = system: Klebsiella pneumoniae; test: Antimicrobial activity against Klebsiella pneumoniae MTCC 3384
# [26] = Antioxidant activity against ferric chloride-induced lipid peroxidation using egg lecithin at 10 ug/ml after 1 hr
# [27] = system: Aspergillus flavus; test: Antimicrobial activity against Aspergillus flavus MTCC 873 at 100 ug/ml after 24 hrs by agar disc diffusion method; settings: MTCC 873, 24 h, read-out: DIZ
# [28] = system: Klebsiella pneumoniae; test: Antimicrobial activity against Klebsiella pneumoniae MTCC 3384 at 50 ug/ml after 24 hrs by agar disc diffusion method; settings: MTCC 3384, 24 h, read-out: DIZ
# [29] = system: Aspergillus niger; test: Antimicrobial activity against Aspergillus niger MTCC 281 at 50 ug/ml after 24 hrs by agar disc diffusion method; settings: MTCC 281, 24 h, read-out: DIZ
# [30] = system: Radical scavenging activity; test: Antioxidant activity assessed as DPPH free radical scavenging activity at 10 ug/ml after 20 mins
# [31] = system: Aspergillus niger; test: Antimicrobial activity against Aspergillus niger MTCC 281
Structure (SMILES),inhibition [1],zone of inhibition at 100 µg/mL [2],inhibition [3],Activity [4],MIC [5],MIC [6],MIC [7],zone of inhibition at 100 µg/mL [8],zone of inhibition at 50 µg/mL [9],Activity [10],Activity [11],zone of inhibition at 100 µg/mL [12],Activity [13],zone of inhibition at 50 µg/mL [14],MIC [15],zone of inhibition at 100 µg/mL [16],zone of inhibition at 50 µg/mL [17],zone of inhibition at 100 µg/mL [18],inhibition [19],zone of inhibition at 100 µg/mL [20],also measured
c1ccc(-c2cc(-c3noc(-c4ccccc4)n3)n(-c3ccccc3)n2)cc1,40%,6 mm,67%,10%,55 µg/mL,15 µg/mL,55 µg/mL,6 mm,3 mm,28%,65%,18 mm,14%,10 mm,35 µg/mL,9 mm,4 mm,6 mm,37%,8 mm,Activity [21]: 39%; zone of inhibition at 50 µg/mL [22]: 5 mm; zone of inhibition at 50 µg/mL [23]: 3 mm; MIC [24]: 40 µg/mL; MIC [25]: 50 µg/mL; inhibition [26]: 26%; zone of inhibition at 100 µg/mL [27]: 10 mm; zone of inhibition at 50 µg/mL [28]: 3 mm; zone of inhibition at 50 µg/mL [29]: 9 mm; Activity [30]: 18%; MIC [31]: 20 µg/mL
COc1ccc(C2=NN(c3ccccc3)C(c3noc(-c4ccccc4OC)n3)C2)cc1 (stereo not drawn),33%,8 mm,57%,11%,25 µg/mL,15 µg/mL,35 µg/mL,8 mm,6 mm,41%,65%,22 mm,24%,10 mm,35 µg/mL,10 mm,6 mm,8 mm,27.1%,8 mm,Activity [21]: 53%; zone of inhibition at 50 µg/mL [22]: 4 mm; zone of inhibition at 50 µg/mL [23]: 4 mm; MIC [24]: 25 µg/mL; MIC [25]: 25 µg/mL; inhibition [26]: 21%; zone of inhibition at 100 µg/mL [27]: 12 mm; zone of inhibition at 50 µg/mL [28]: 7 mm; zone of inhibition at 50 µg/mL [29]: 12 mm; Activity [30]: 20%; MIC [31]: 10 µg/mL
COc1ccc(C2=NN(c3ccccc3)C(c3noc(-c4ccccc4)n3)C2)cc1 (stereo not drawn),40%,8 mm,62%,11%,25 µg/mL,25 µg/mL,55 µg/mL,12 mm,7 mm,36%,64%,18 mm,20%,7 mm,45 µg/mL,8 mm,6 mm,8 mm,23.3%,12 mm,Activity [21]: 51%; zone of inhibition at 50 µg/mL [22]: 3 mm; zone of inhibition at 50 µg/mL [23]: 2 mm; MIC [24]: 25 µg/mL; MIC [25]: 25 µg/mL; inhibition [26]: 26%; zone of inhibition at 100 µg/mL [27]: 10 mm; zone of inhibition at 50 µg/mL [28]: 6 mm; zone of inhibition at 50 µg/mL [29]: 10 mm; Activity [30]: 19%; MIC [31]: 10 µg/mL
COc1ccc(C2=NN(c3ccccc3)C(c3noc(-c4ccc(OC)c(OC)c4)n3)C2)cc1 (stereo not drawn),49%,18 mm,76%,13%,15 µg/mL,10 µg/mL,15 µg/mL,18 mm,10 mm,48%,74%,30 mm,23%,16 mm,10 µg/mL,24 mm,8 mm,16 mm,29.9%,16 mm,Activity [21]: 67%; zone of inhibition at 50 µg/mL [22]: 12 mm; zone of inhibition at 50 µg/mL [23]: 10 mm; MIC [24]: 20 µg/mL; MIC [25]: 20 µg/mL; inhibition [26]: 34%; zone of inhibition at 100 µg/mL [27]: 20 mm; zone of inhibition at 50 µg/mL [28]: 8 mm; zone of inhibition at 50 µg/mL [29]: 16 mm; Activity [30]: 29%; MIC [31]: 10 µg/mL
COc1cc(-c2nc(C3CC(c4ccc(O)cc4)=NN3c3ccccc3)no2)cc(OC)c1OC (stereo not drawn),62%,18 mm,87%,16%,10 µg/mL,10 µg/mL,15 µg/mL,18 mm,14 mm,63%,76%,30 mm,26%,14 mm,10 µg/mL,22 mm,10 mm,16 mm,59.3%,18 mm,Activity [21]: 91%; zone of inhibition at 50 µg/mL [22]: 12 mm; zone of inhibition at 50 µg/mL [23]: 10 mm; MIC [24]: 15 µg/mL; MIC [25]: 10 µg/mL; inhibition [26]: 42%; zone of inhibition at 100 µg/mL [27]: 26 mm; zone of inhibition at 50 µg/mL [28]: 12 mm; zone of inhibition at 50 µg/mL [29]: 18 mm; Activity [30]: 34%; MIC [31]: 5 µg/mL
Clc1ccc(C2=NN(c3ccccc3)C(c3noc(-c4ccc(Cl)cc4)n3)C2)cc1 (stereo not drawn),58%,10 mm,83%,16%,20 µg/mL,10 µg/mL,20 µg/mL,12 mm,8 mm,53%,86%,26 mm,32%,15 mm,25 µg/mL,12 mm,8 mm,10 mm,78.4%,12 mm,Activity [21]: 82%; zone of inhibition at 50 µg/mL [22]: 6 mm; zone of inhibition at 50 µg/mL [23]: 6 mm; MIC [24]: 20 µg/mL; MIC [25]: 25 µg/mL; inhibition [26]: 34%; zone of inhibition at 100 µg/mL [27]: 25 mm; zone of inhibition at 50 µg/mL [28]: 6 mm; zone of inhibition at 50 µg/mL [29]: 20 mm; Activity [30]: 29%; MIC [31]: 5 µg/mL
COc1ccc(C2=NN(c3ccccc3)C(c3noc(-c4ccc(Cl)cc4)n3)C2)cc1 (stereo not drawn),48%,10 mm,70%,12%,25 µg/mL,10 µg/mL,30 µg/mL,12 mm,8 mm,52%,58%,20 mm,23%,12 mm,40 µg/mL,8 mm,8 mm,10 mm,57.5%,13 mm,Activity [21]: 72%; zone of inhibition at 50 µg/mL [22]: 4 mm; zone of inhibition at 50 µg/mL [23]: 5 mm; MIC [24]: 25 µg/mL; MIC [25]: 25 µg/mL; inhibition [26]: 34%; zone of inhibition at 100 µg/mL [27]: 18 mm; zone of inhibition at 50 µg/mL [28]: 7 mm; zone of inhibition at 50 µg/mL [29]: 12 mm; Activity [30]: 22%; MIC [31]: 10 µg/mL
COc1ccc(-c2nc(C3CC(c4ccccc4)=NN3c3ccccc3)no2)cc1OC (stereo not drawn),52%,14 mm,71%,12%,25 µg/mL,10 µg/mL,20 µg/mL,12 mm,7 mm,56%,68%,18 mm,29%,10 mm,20 µg/mL,10 mm,8 mm,12 mm,27.1%,14 mm,Activity [21]: 66%; zone of inhibition at 50 µg/mL [22]: 8 mm; zone of inhibition at 50 µg/mL [23]: 8 mm; MIC [24]: 20 µg/mL; MIC [25]: 20 µg/mL; inhibition [26]: 14%; zone of inhibition at 100 µg/mL [27]: 14 mm; zone of inhibition at 50 µg/mL [28]: 8 mm; zone of inhibition at 50 µg/mL [29]: 12 mm; Activity [30]: 26%; MIC [31]: 10 µg/mL
